Measured values from patent publication US9498429B2, “Use of a vegetal extract for the prevention and treatment of hair loss” (GIULIANI S.P.A., priority 2013, dated 2016).

System: murine fibroblasts BALB3T3
Assay: MTT with induced oxidative stress-BALB3T3
Type: cell-based
Conditions: 25 μM; oxidative stress induced with H2O2
Description: (§1) Non-treated cells in DMEM medium (Dulbecco's Modified Eagle's Medium, ATCC, Manassas, Va., USA) added to 2.5% fetal bovine serum (FCS), 1% non-essential amino acids (NEAA), a 1% penicillin and streptomycin mixture (Pen-Strep Mix), and maintained in 25 cm^2 (96 well) culture plates at 37° C. and under 5% CO2.
as §1, with “Cells treated for 2 hrs with 1 mM hydrogen peroxide” for “Non-treated cells”, “CO2 (in the dark). […]” for “CO2.”
Studies conducted in 2005 by Rajapakse and colleagues (2005) have highlighted the possibility of employing a widely used and versatile method such that of the MTT essay for studying the in vitro anti-oxidant activity of active compounds. […] The possible protecting effects may be determined by the assessment of the post-oxidative stress cell viability of cells pre-treated/pre-exposed to the active compounds to be tested, in comparison to cells subjected to the same oxidative stress. […]
The data were expressed as the percentage of cell viability as compared to the non-stressed control cells (ctr), according to the following formula: cell viability/ctr=(Abs sample/Abs ctr)*100 […]

Cc1c(C)c2c(c(C)c1O)CC[C@@](C)(CCC[C@H](C)CCC[C@H](C)CCCC(C)C)O2 [α-tocopherol]
Scavenger activity: 43.10
